Laboratory results taken from article PMC10218596 (International Journal of Molecular Sciences, 2023).
Where two headings read alike, the source gives them in different places. Where a SMILES comes first, the peptide text is derived from it. Bridges are numbered along the chain shown (N, C = ends).

Tests used:
[1] = target: T1, hα6/α3β4S165I (Homo sapiens, UniProt P30926+Q15825, S191I); format: cell-based
T1 construct: formed by splicing the N-terminal extracellular domain of the α6 subunit with the α3 subunit; human nAChR α3 subunit (CHRNA3); expressed in transfected cells; host or cells: Xenopus laevis oocytes injected with cRNA (plasmids from the University of Utah)
T1 sequence (Q15825 26-239 limits assumed): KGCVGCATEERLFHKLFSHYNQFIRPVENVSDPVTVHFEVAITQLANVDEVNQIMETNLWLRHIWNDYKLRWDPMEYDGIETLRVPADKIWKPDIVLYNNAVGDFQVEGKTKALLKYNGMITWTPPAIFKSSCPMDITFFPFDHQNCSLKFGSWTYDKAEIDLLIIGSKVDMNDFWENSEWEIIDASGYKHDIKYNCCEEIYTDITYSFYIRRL
T1 sequence (P30926 22-498 S191I): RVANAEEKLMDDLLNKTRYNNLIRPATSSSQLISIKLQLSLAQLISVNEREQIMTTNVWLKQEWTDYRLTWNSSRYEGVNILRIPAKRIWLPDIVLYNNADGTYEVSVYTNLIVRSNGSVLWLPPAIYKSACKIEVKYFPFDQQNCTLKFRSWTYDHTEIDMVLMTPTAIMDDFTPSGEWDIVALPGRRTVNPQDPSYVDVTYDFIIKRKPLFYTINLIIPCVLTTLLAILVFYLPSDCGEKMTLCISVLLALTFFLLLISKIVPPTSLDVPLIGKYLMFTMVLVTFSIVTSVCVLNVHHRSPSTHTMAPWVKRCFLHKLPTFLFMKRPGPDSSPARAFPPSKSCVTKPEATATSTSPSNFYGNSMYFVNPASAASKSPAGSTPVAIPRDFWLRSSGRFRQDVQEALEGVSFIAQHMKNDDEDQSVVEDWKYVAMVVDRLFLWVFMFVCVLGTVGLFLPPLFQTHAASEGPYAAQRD

[2] = test system: rat α6/α3β2β3 nAChR; conditions: cited from earlier work
[3] = test system: h[α6K81N/α3]β4; format: cell-based, human
[4] = target: T2, h[α6K81N/α3]β4 (Homo sapiens, UniProt P30926+P32297+Q15825, K114N); format: cell-based
T2 construct: formed by splicing the N-terminal extracellular domain of the α6 subunit with the α3 subunit; fusion partner: remainder of the human α3 subunit (CHRNA3); expressed in transfected cells; host or cells: Xenopus laevis oocytes injected with cRNA

[5] = target: T3, hα6/α3β4K31R (Homo sapiens, UniProt P30926+Q15825, K57R); format: cell-based
T3 construct: splicing the N-terminal extracellular domain of the α6 subunit with the α3 subunit; mutant made by PCR mutagenesis; host or cells: Xenopus laevis oocytes injected with cRNA

[6] = target: T4, h[α6K7T/α3]β4 (Homo sapiens, UniProt P30926+P32297+Q15825, K40T); format: cell-based
T4 construct: formed by splicing the N-terminal extracellular domain of the α6 subunit with the α3 subunit; human nAChR α3 subunit (CHRNA3); expressed in transfected cells; host or cells: Xenopus laevis oocytes injected with cRNA (plasmids from the University of Utah)

[7] = test system: h[α6V32L, K61R/α3]β4; format: cell-based, human
[8] = target: T5, hα6/α3β4V53I (Homo sapiens, UniProt P30926+Q15825, V79I); format: cell-based
T5 construct: splicing the N-terminal extracellular domain of the α6 subunit with the α3 subunit; mutant made by PCR mutagenesis; host or cells: Xenopus laevis oocytes injected with cRNA
T5 sequence (Q15825 26-239 limits assumed): as the sequence (Q15825 26-239 limits assumed) above
T5 sequence (P30926 22-498 V79I): as the sequence (P30926 22-498 S191I) above, with V58I, I170S counted along it

[9] = test system: h[α6M67T/α3]β4; format: cell-based, human
[10] = target: T6, h[α6M67T/α3]β4 (Homo sapiens, UniProt P30926+P32297+Q15825, M100T); format: cell-based
T6 construct: formed by splicing the N-terminal extracellular domain of the α6 subunit with the α3 subunit; fusion partner: remainder of the human α3 subunit (CHRNA3); expressed in transfected cells; host or cells: Xenopus laevis oocytes injected with cRNA

[11] = target: T7, hα6/α3β4L116Q (Homo sapiens, UniProt P30926+Q15825, L142Q); format: cell-based
T7 construct: splicing the N-terminal extracellular domain of the α6 subunit with the α3 subunit; mutant made by PCR mutagenesis; host or cells: Xenopus laevis oocytes injected with cRNA
T7 sequence (Q15825 26-239 limits assumed): as the sequence (Q15825 26-239 limits assumed) above
T7 sequence (P30926 22-498 L142Q): as the sequence (P30926 22-498 S191I) above, with L121Q, I170S counted along it

[12] = target: T8, hα6/α3β4T65A (Homo sapiens, UniProt P30926+Q15825, T91A); format: cell-based
T8 construct: splicing the N-terminal extracellular domain of the α6 subunit with the α3 subunit; mutant made by PCR mutagenesis; host or cells: Xenopus laevis oocytes injected with cRNA
T8 sequence (Q15825 26-239 limits assumed): as the sequence (Q15825 26-239 limits assumed) above
T8 sequence (P30926 22-498 T91A): as the sequence (P30926 22-498 S191I) above, with T70A, I170S counted along it

[13] = target: T9, hα6/α3β4I84V (Homo sapiens, UniProt P30926+Q15825, I110V); format: cell-based
T9 construct: splicing the N-terminal extracellular domain of the α6 subunit with the α3 subunit; mutant made by PCR mutagenesis; host or cells: Xenopus laevis oocytes injected with cRNA
T9 sequence (Q15825 26-239 limits assumed): as the sequence (Q15825 26-239 limits assumed) above
T9 sequence (P30926 22-498 I110V): as the sequence (P30926 22-498 S191I) above, with I89V, I170S counted along it

[14] = target: T10, h[α6I56V/α3]β4 (Homo sapiens, UniProt P30926+P32297+Q15825, I89V); format: cell-based
T10 construct: formed by splicing the N-terminal extracellular domain of the α6 subunit with the α3 subunit; human nAChR α3 subunit (CHRNA3); expressed in transfected cells; host or cells: Xenopus laevis oocytes injected with cRNA (plasmids from the University of Utah)

[15] = target: T11, h[α6I176V/α3]β4 (Homo sapiens, UniProt P30926+P32297+Q15825, I209V); format: cell-based
T11 construct: formed by splicing the N-terminal extracellular domain of the α6 subunit with the α3 subunit; fusion partner: remainder of the human α3 subunit (CHRNA3); expressed in transfected cells; host or cells: Xenopus laevis oocytes injected with cRNA

[16] = target: T12, h[α6R3Q/α3]β4 (Homo sapiens, UniProt P30926+P32297+Q15825, R36Q); format: cell-based
T12 construct: formed by splicing the N-terminal extracellular domain of the α6 subunit with the α3 subunit; human nAChR α3 subunit (CHRNA3); expressed in transfected cells; host or cells: Xenopus laevis oocytes injected with cRNA (plasmids from the University of Utah)

[17] = target: T13, hα6/α3β4T161S (Homo sapiens, UniProt P30926+Q15825, T187S); format: cell-based
T13 construct: formed by splicing the N-terminal extracellular domain of the α6 subunit with the α3 subunit; human nAChR α3 subunit (CHRNA3); expressed in transfected cells; host or cells: Xenopus laevis oocytes injected with cRNA (plasmids from the University of Utah)

[18] = target: T14, rα6/α3β4 (Rattus norvegicus, UniProt P04757+P12392+P43143); format: cell-based
T14 construct: formed by splicing the N-terminal extracellular domain of the α6 subunit with the α3 subunit; fusion partner: remainder of the rat α3 subunit (Chrna3); expressed in transfected cells; host or cells: Xenopus laevis oocytes injected with cRNA

[19] = target: T15, h[α6M112V/α3]β4 (Homo sapiens, UniProt P30926+P32297+Q15825, M145V); format: cell-based
T15 construct: formed by splicing the N-terminal extracellular domain of the α6 subunit with the α3 subunit; fusion partner: remainder of the human α3 subunit (CHRNA3); expressed in transfected cells; host or cells: Xenopus laevis oocytes injected with cRNA

[20] = target: T16, hα6/α3β4 (Homo sapiens, UniProt P30926+P32297+Q15825); test: cell-based; format: cell-based
T16 construct: splicing the N-terminal extracellular domain of the α6 subunit with the α3 subunit; host or cells: Xenopus laevis oocytes injected with cRNA (1:1)
T16 sequence (Q15825+P32297 fused with the stated changes): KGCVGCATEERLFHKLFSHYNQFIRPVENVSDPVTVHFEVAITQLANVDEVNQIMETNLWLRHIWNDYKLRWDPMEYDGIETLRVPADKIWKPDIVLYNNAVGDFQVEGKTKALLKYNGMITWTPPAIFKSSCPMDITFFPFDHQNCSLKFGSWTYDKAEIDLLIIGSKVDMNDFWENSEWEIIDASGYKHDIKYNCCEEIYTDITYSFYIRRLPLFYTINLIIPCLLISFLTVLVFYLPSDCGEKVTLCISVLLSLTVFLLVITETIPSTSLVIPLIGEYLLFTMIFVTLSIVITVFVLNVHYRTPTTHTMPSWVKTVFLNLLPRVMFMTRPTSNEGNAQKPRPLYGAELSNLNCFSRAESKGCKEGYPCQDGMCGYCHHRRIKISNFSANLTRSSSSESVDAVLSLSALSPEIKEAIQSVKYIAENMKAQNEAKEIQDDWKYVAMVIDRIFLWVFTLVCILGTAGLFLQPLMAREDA
T16 sequence (P30926 22-498): as the sequence (P30926 22-498 S191I) above, with I170S counted along it

[21] = read-out: inhibition of the current response to 100 μM ACh

CC(C)C[C@@H]1NC(=O)[C@H](CC(=O)O)NC(=O)[C@@H]2CCCN2C(=O)[C@H](Cc2c[nH]cn2)NC(=O)[C@H](CCCCN)NC(=O)[C@H](CC(N)=O)NC(=O)[C@H](CCCNC(=N)N)NC(=O)[C@@H]2CSSC[C@H](NC(=O)CN)C(=O)N[C@@H](CSSC[C@@H](C(N)=O)NC1=O)C(=O)N[C@@H](CO)C(=O)N[C@@H](CC(=O)O)C(=O)N1CCC[C@H]1C(=O)N1CCC[C@H]1C(=O)N2 [TxIB] (H-GCCSDPPCRNKHPDLC-NH2; disulfide 2-8, 3-16)
Hill Slope [1]: 0.7 (0.6–0.9) | Ratio (change in TxIB IC50 relative to hα6/α3β4) [1]: 1 | IC50 [2]: 0.028 µM | Ratio (change in TxIB IC50 relative to hα6/α3β4) [3]: 1.2 | Hill Slope [4]: 0.8 (0.7–0.9) | Hill Slope [5]: 0.8 (0.7–0.9) | Ratio (change in TxIB IC50 relative to hα6/α3β4) [5]: 2.2 | Hill Slope [6]: 0.8 (0.6–0.9) | Ratio (change in TxIB IC50 relative to hα6/α3β4) [6]: 1.4 | Ratio (change in TxIB IC50 relative to hα6/α3β4) [7]: 8.1 | time to full restoration of currents blocked by TxIB [7]: ≤ 1 min | IC50 ([7]; read-out: IC50): 4.3 µM | IC50 ([7]; read-out: IC50 (95% CI)): 4.34 µM | activity [7, 21]: 31.9 ± 8.05% | Hill Slope [8]: 0.8 (0.7–0.9) | Ratio (change in TxIB IC50 relative to hα6/α3β4) [8]: 1.1 | Ratio (change in TxIB IC50 relative to hα6/α3β4) [9]: 1.1 | Hill Slope [10]: 0.9 (0.7–1.0) | Hill Slope [11]: 0.8 (0.7–0.9) | Ratio (change in TxIB IC50 relative to hα6/α3β4) [11]: 1.7 | Hill Slope [12]: 0.9 (0.8–1.0) | Ratio (change in TxIB IC50 relative to hα6/α3β4) [12]: 1 | Hill Slope [13]: 0.8 (0.8–0.9) | Ratio (change in TxIB IC50 relative to hα6/α3β4) [13]: 1.4 | Hill Slope [14]: 1.0 (0.9–1.2) | Ratio (change in TxIB IC50 relative to hα6/α3β4) [14]: 0.9 | Hill Slope [15]: 0.8 (0.7–0.9) | Ratio (change in TxIB IC50 relative to hα6/α3β4) [15]: 0.8 | Hill Slope [16]: 0.9 (0.8–1.1) | Ratio (change in TxIB IC50 relative to hα6/α3β4) [16]: 0.9 | Hill Slope [17]: 0.8 (0.6–0.9) | Ratio (change in TxIB IC50 relative to hα6/α3β4) [17]: 1.8 | blocking effect [18]: almost no blocking effect | Hill Slope [19]: 0.8 (0.7–0.9) | Ratio (change in TxIB IC50 relative to hα6/α3β4) [19]: 0.6 | Hill Slope [20]: 0.8 (0.8–0.9) | Ratio (change in TxIB IC50 relative to hα6/α3β4) [20]: 1 | blocking effect [20]: completely blocked | variation of activity between human and murine nAChRs [20]: more than 30 fold | activity at 10 µM [20, 21]: 11 ± 5.9%
